{"source": "paper PMC2131780", "about": "“A Tale of Switched Functions: From Cyclooxygenase Inhibition to M-Channel Modulation in New Diphenylamine Derivatives” (PLoS ONE, 2007)", "key": {"rat DRG neurons": {"test_system": "rat DRG neurons", "test": "Current-clamp recording of cultured DRG neurons", "assay_type": "cell-based", "conditions": "25 µM", "description": "For dorsal root ganglion (DRG) neuronal cultures, ganglia were dissected from 2–5 day-old Sprague-Dawley rats killed by decapitation. DRGs were placed in Hank's balanced saline solution (HBSS) and prepared by enzymatic dissociation. Briefly, after 30 min incubation in 5 mg/ml dispase, 2 mg/ml collagenase type 1A and 0.1 mg/ml DNase (Invitrogen/Gibco, Carlsbad, CA) in Ca^2+ and Mg^2+-free HBSS, the ganglia were mechanically triturated with a fire-polished glass Pasteur pipette. The ganglia were then centrifuged for 5 min at 80xg and resuspended in DMEM supplemented with 2 mM L-glutamine, 16.5 mM NaHCO3, 6 g/l glucose, 5 ml penicillin/streptomycin and 10% fetal calf serum. For electrophysiological recording, dissociated neurons were plated on 13 mm glass coverslips, previously coated with poly-D-lysine (1 mg/ml) and laminin (10 µg/ml) and used at 1–2 days in culture.\nFor current-clamp recordings in primary cultured neurons, the patch pipettes were filled with (in mM): 135 KCl, 1 K2ATP, 1 MgATP, 2 EGTA, 1.1 CaCl2, 5 glucose, 10 HEPES, adjusted with KOH at pH 7.4 (315 mOsm). The external solution contained (in mM): 150 NaCl, 2.5 KCl, 2 CaCl2, 2 MgCl2, 15 glucose, 10 HEPES, adjusted with NaOH at pH 7.4 (325 mOsm). Recordings were sampled at 5 kHz and filtered at 2 KHz via a 4-pole Bessel low pass filter. A liquid junction potential of about −15.6 mV was measured between the intracellular and saline solutions and corrected on-line. For evoking spike discharges, 75–200 pA square depolarizing current pulses were injected into neurons for 400 ms. For rheobase current measurements, 100–1100 pA square depolarizing current pulses were injected into neurons for 2 ms."}, "[1]": {"target": "T1, Kv7.2/3 K+ channels (M-channels) (Homo sapiens, UniProt O43525+O43526)", "T1 construct": "expressed in transfected cells; host or cells: CHO cells", "T1 sequence (O43526 whole entry)": "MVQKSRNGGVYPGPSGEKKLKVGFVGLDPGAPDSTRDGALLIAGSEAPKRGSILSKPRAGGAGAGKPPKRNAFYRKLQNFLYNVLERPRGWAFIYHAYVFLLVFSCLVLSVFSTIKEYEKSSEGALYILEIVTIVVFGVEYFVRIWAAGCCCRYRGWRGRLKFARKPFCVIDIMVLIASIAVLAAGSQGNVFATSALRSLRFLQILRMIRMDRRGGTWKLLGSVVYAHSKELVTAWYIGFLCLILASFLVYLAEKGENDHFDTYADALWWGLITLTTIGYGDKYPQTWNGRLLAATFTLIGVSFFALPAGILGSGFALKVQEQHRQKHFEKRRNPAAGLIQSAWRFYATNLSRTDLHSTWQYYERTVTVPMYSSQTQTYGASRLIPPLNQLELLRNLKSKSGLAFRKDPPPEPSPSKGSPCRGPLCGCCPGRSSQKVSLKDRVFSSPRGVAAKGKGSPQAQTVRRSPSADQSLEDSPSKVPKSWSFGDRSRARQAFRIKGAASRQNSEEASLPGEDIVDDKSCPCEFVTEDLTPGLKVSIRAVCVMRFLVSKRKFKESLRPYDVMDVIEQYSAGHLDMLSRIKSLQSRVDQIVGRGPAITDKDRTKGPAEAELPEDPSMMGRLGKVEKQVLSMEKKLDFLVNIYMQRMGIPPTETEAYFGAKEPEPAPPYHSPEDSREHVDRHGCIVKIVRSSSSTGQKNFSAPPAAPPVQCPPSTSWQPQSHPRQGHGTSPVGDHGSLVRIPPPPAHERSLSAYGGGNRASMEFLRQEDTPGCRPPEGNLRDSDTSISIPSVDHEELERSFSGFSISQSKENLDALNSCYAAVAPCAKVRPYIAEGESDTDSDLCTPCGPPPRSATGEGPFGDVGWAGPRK", "T1 sequence (O43525 whole entry)": "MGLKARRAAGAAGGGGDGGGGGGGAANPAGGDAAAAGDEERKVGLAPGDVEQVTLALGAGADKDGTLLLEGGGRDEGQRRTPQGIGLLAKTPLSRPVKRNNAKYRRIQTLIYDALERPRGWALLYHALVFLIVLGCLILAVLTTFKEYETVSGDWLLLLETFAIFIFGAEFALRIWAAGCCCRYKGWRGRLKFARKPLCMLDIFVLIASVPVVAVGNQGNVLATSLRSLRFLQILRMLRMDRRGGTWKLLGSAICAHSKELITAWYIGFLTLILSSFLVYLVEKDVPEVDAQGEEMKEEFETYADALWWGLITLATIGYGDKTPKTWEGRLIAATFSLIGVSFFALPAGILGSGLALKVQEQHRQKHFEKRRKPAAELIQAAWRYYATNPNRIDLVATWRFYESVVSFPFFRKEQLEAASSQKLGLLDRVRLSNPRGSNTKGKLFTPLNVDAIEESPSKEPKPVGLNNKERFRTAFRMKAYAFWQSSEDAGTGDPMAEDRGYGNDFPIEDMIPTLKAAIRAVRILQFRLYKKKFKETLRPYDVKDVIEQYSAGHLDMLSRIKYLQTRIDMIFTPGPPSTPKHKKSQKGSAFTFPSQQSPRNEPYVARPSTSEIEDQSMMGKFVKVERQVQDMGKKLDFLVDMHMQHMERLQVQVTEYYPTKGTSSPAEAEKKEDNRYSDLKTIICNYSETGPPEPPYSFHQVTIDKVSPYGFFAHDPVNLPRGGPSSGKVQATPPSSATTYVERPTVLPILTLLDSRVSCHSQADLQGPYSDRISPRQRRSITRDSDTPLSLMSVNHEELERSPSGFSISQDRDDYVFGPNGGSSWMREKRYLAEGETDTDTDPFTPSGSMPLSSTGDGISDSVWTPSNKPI", "test": "Whole-cell patch-clamp of recombinant Kv7.2/3 channels in CHO cells", "assay_type": "cell-based", "conditions": "for V50 of Kv7.2/3 activation: n = 5; for fold increase in Kv7.2/3 current amplitude: step −90 to −50 mV", "description": "Chinese hamster ovary (CHO) cells were grown in Dulbecco's modified Eagle's medium (DMEM) supplemented with 2 mM glutamine, 10% fetal calf serum and antibiotics. Briefly, 40,000 cells seeded on poly-D-lysine-coated glass coverslips (13 mm diameter) in a 24-multiwell plate were transfected with pIRES-CD8 (0.5 µg) as a marker for transfection, and with Kv7.2 (0.5 µg) and Kv7.3 (0.5 µg). For electrophysiology, transfected cells were visualized approximately 40 hours following transfection, using anti-CD8 antibody-coated beads. Transfection was performed using Fugene 6 (Roche, Indianapolis IN, USA) according to the manufacturer's protocol.\nVoltage-clamp recordings in CHO cells were performed, using the whole-cell configuration of the patch-clamp technique. Signals were amplified using an Axopatch 200B patch-clamp amplifier (Molecular Devices, Sunnyvale, CA), sampled at 2 kHz and filtered at 800 Hz via a 4-pole Bessel low pass filter. […] The patch pipettes were pulled from borosilicate glass (Warner Instrument Corp, USA) with a resistance of 2–5 MΩ. For K^+ current recordings in CHO cells, the intracellular pipette solution contained (in mM): 130 KCl, 1 MgCl2, 5 K2ATP, 5 EGTA, 10 HEPES, adjusted with KOH to pH 7.4 (290 mOsm). The extracellular solution contained (in mM): 140 NaCl, 4 KCl, 1.8 CaCl2, 1.2 MgCl2, 11 glucose, 5.5 HEPES, adjusted with NaOH to pH 7.4 (310 mOsm). Series resistances (3–13 MΩ) were compensated (75–90%) and periodically monitored.\nData analysis was performed using the Clampfit program (pClamp 9.2, Molecular Devices), Microsoft Excel (Microsoft) and Prism 4.0 (GraphPad). Chord conductance (G) was calculated by using the following equation: [drawing 1] where I corresponds to the current amplitude measured at the end of the pulse and Vrev, the calculated reversal potential. G was estimated at various test voltages V and then, normalized to a maximal conductance value, Gmax. Activation curves were fitted by one Boltzmann distribution: [drawing 2] where V50 is the voltage at which the current is half-activated and s is the slope factor. All data were expressed as mean±SEM. Statistically significant differences were assessed by Student's t-test. Analysis of sEPSCs and sIPSCs was done using the Clampfit program (pClamp 9.2, Molecular Devices) and included evaluation of the individual events as well as the average event amplitude and the integral of the event (total charge transfer)."}, "[2]": {"test_system": "MES-induced tonic hind limb extension", "test": "Maximal electroshock seizure (MES) model", "assay_type": "in vivo, mouse", "conditions": "Mus musculus, ip; mice, intraperitoneal, 30 min before electroshock (0.2 sec, 50 mA); read-out: ED50, protection against tonic extension caused by MES", "description": "This test is generally thought to be a model of generalized tonic-clonic seizure in human.\nThe anti-convulsant effect was measured by the maximal electroshock seizure model (MES) in ICR mice as previously described. The procedures followed for experimentation and maintenance of the animals were approved by the animal research ethics committee of Tel Aviv University and in accordance with the Guide for the Care and Use of Laboratory Animals (1996, National Academy of Sciences, Washington DC). Briefly, maximal electroshock was induced in adult mice by means of two transcorneal electrodes delivering an alternative current of 50 mA at 60 Hz for 0.2 sec using rodent shocker (Hugo Sachs Electronik, type 221). […] The drugs dissolved in 0.9% saline were administered intraperitoneally 30 min before the electroshock was performed. Animals failing to show tonic hind limb extension were scored as protected and were expressed in percentage."}}, "note": "pEC50: −log10 of the molar value.", "data": [{"compound": "O=C(Cc1cc([N+](=O)[O-])ccc1Nc1c(Cl)cccc1Cl)OCCO", "note": "[Compound 15]", "values": [{"measurement": "hyperpolarization of resting membrane potential, DRG neurons", "setting": "rat DRG neurons", "result": "−8.3±0.2", "unit": "mV"}, {"measurement": "resting membrane potential of DRG neurons after exposure", "setting": "rat DRG neurons", "result": "−69.0±0.3", "unit": "mV"}, {"measurement": "rheobase current to generate a single spike, DRG neurons", "setting": "rat DRG neurons; 2 ms injection", "result": "577±38", "unit": "pA"}, {"measurement": "number of evoked action potentials, DRG neurons", "setting": "rat DRG neurons; depolarizing current for 400 ms", "result": "0.8±0.3"}, {"measurement": "left-shift of Kv7.2/3 activation curve", "setting": "[1]; 10 µM", "result": "−11", "unit": "mV"}, {"measurement": "V50 of Kv7.2/3 activation", "setting": "[1]; 10 µM", "result": "−43.6±9.0", "unit": "mV"}, {"measurement": "fold increase in Kv7.2/3 current amplitude", "setting": "[1]; 10 µM", "result": 3.2, "unit": "fold"}, {"measurement": "activation kinetics t1/2 of Kv7.2/3", "setting": "[1]; 25 µM, at −20 mV", "result": "0.171 ± 0.029", "unit": "s"}, {"measurement": "deactivation time constant τdeact of Kv7.2/3", "setting": "[1]; 25 µM, tail currents at −60 mV", "result": "284 ± 43", "unit": "ms"}, {"measurement": "left-shift of Kv7.2/3 activation curve", "setting": "[1]; 50 µM", "result": "−21", "unit": "mV"}, {"measurement": "V50 of Kv7.2/3 activation", "setting": "[1]; 50 µM", "result": "−53.5±9.3", "unit": "mV"}, {"measurement": "fold increase in Kv7.2/3 current amplitude", "setting": "[1]; 50 µM", "result": 9.1, "unit": "fold"}, {"measurement": "left-shift of Kv7.2/3 activation curve", "setting": "[1]; 200 µM", "result": "−31", "unit": "mV"}, {"measurement": "V50 of Kv7.2/3 activation", "setting": "[1]; 200 µM", "result": "−63.1±2.0", "unit": "mV"}, {"measurement": "ΔV50 (mV), left-shift in half-activation potential", "setting": "[1]; Kv7.2/3 in CHO cells", "result": "−31.0", "unit": "mV"}, {"measurement": "M-channels (Kv7.2/Kv7.3) effect (opener / blocker / inactive)", "setting": "[1]; Kv7.2 and Kv7.3 coexpressed in CHO cells", "result": "opener"}, {"measurement": "pEC50", "setting": "[1]; concentration-dependent left-shift ΔV50, sigmoidal fit, read-out: M-channel opener potency EC50", "result": 4.66}, {"measurement": "ED50", "setting": "[2]", "result": 12, "unit": "mg/kg"}]}]}
